We go through one compound from patent publication US20230372350A1, “ASTROCYTIC TRPA1 CHANNEL INHIBITION AS A NOVEL NEUROPROTECTIVE THERAPEUTIC TARGET IN THE PRODROMAL PHASES OF ALZHEIMER'S DISEASE” (priority 2020, published 2023).

Assay [1] deals with astrocytes of the hippocampus (stratum radiatum), TRPA1 channel. Kind of assay: Acute application on acute hippocampal slices: astrocyte calcium imaging. The class given is cell-based, mouse. The note with it: 40 μM, APP/PS1-21 mice 1-month old. Here is the method: Coronal sections of the hippocampus (thickness 300 μm) were prepared from APP/PS1-21 transgenic mice (1 month and 3 months old) or from WT mice from the same litter. The mice were sacrificed by decerebration and decapitation. The brain was quickly removed and sectioned in ice-cold ACSF containing (in mM) : 2.5 KCl, 7 MgCl2, 0.5 CaCl2, 1.2 NaHPO4, 25 NaHCO3, 11D-glucose and 234 sucrose bubbled with 95% of O2 and 5% of CO2 with a VT1200S vibratome (Leica, Germany). The sections containing the hippocampus were placed in ACSF containing (in mM) : 126 NaCl, 2.5 KCl, 1.2 MgCl2, 2.5 CaCl2, 1.2 NaH2PO4 bubbled with 95% of O2 and 5% of CO2 and supplemented with 1 mM of sodium pyruvate at room temperature for a recovery period.
300 μm coronal sections were transferred to a chamber allowing constant perfusion with ACSF at room temperature, bubbling with 95% of O2 and 5% of CO2 on the upright microscope tray (Eclipse E600 FN, Nikon, France) equipped with a 60× (NA 1.0) water immersion objective and infrared interference contrast optical systems with a CCD camera (Optronis VX45, Germany). […] The signals were amplified by Axopatch 200B, sampled by a Digidata 1440A interface and recorded by the pClamp8 software (Molecular Devices, USA). […] The input resistance was calculated by measuring the current in response to a 10 mV pulse of 80 ms duration near the end of the voltage command.

In assay [2] the test system is dendritic spines of CA1 pyramidal neurons, Thy1-eYFP-H-APP/PS1-21 mice. Kind of assay: Chronic intraperitoneal treatment: analysis of dendritic spines. In kind it is in vivo, mouse. The following applies: 3 months, treated from 14th postnatal day. Here is the method:
In some experiments, APP/PS1-21 mice were crossed with the Thy1-eYFP-H murine transgenic line which expresses the fluorescent protein eYFP in specific neuron subpopulations. This solution is then diluted to 1 μg/μl in an isotonic solution containing 1% Pluronic F-127 and 0.9% NaCl. The animals are injected daily intraperitoneally at a dose of 5 mg/kg of body mass. Sterile 0.5 ml BD MicroFine syringes with no dead volume, equipped with a 30G (0.3 mm) needle are used for the injections. The injection is started from the 14th postnatal day (appearance of the expression of the Thy1gene promoter in the hippocampus, triggering the overexpression of Aβ in the APP/PS1-21 murine model) Hippocampal sections from Thy1-eYFP-H-APP/PS1-21 mice were imaged using a Zeiss Airyscan module with a 100× (NA 1.4) Plan Apochromat oil immersion objective. Confocal image stacks (increment of 200 nm) were performed with a voxel size of 0.041×0.041×0.2 μm. The 3D analysis of the spine density, of the spine volume and the spine classification was performed using NeuronStudio software (Icahn School of Medicine at Mount Sinai, USA). The length of individual dendrites was automatically measured as well as the number and volume of associated dendritic spines which were classified as […], thin or mushroom using automated 3D shape classification. For each condition, 10 dendrites were imaged and 700 dendritic spines were analyzed.

The subject of assay [3] is stratum radiatum synapses of APP/PS1-21 and WT mice. Kind of assay: Chronic intraperitoneal treatment: electron microscopy of astrocyte coverage of synapses. The class given is in vivo, mouse. The note with it: 3-months old, i.p. treatment. As for the experimental part: This solution is then diluted to 1 μg/μl in an isotonic solution containing 1% Pluronic F-127 and 0.9% NaCl. The animals are injected daily intraperitoneally at a dose of 5 mg/kg of body mass. Sterile 0.5 ml BD MicroFine syringes with no dead volume, equipped with a 30G (0.3 mm) needle are used for the injections. The injection is started from the 14th postnatal day (appearance of the expression of the Thy1gene promoter in the hippocampus, triggering the overexpression of Aβ in the APP/PS1-21 murine model) Hippocampi were dissected and fixed with 1.7% of glutaraldehyde in 0.1 M phosphate buffer at pH 7.4 for 48 hours at room temperature. The CA1 region was dissected under a binocular magnifying glass and fixed again for 2 hours in the same solution. Samples were then washed with buffer and post-fixed with 1% of osmium tetroxide and 0.1M phosphate buffer with pH 7.2 for 1 hour at 4° C. After thorough washing with water, the cells were then stained with 1% of uranil acetate with pH 4 in water for 1 hour at 4° C. before being dehydrated by successive alcohol baths (30%-60%-90%-100%-100%-100%) and incubated with a 1:1 epon/ethanol at 100% mixture for 1 hour and several baths of fresh epoxy resin (Sigma-Aldrich, France) for 3 hours. Finally, the samples were included in a capsule filled with resin which was allowed to polymerize for 72 h at 60° C. […]

The test system of assay [4] is rodent forms of TRPA1. The note with it: McNamara et al. 2007, Eid et al. 2008, read-out: CI50 (the source's name); cited from earlier work.

Entries after “also recorded” stand apart in the source; their conditions may differ.

With `CC(C)c1ccc(NC(=O)Cn2cnc3c2c(=O)n(C)c(=O)n3C)cc1` [HC030031, 2-(1,3-Dimethyl-2,6-dioxo-1,2,3,6-tetrahydro-7H-purin-7-yl)-N-(4-isopropylphenyl)acetamide], the astrocyte calcium hyperactivity result in assay [1] was “fully restored; also recorded: inhibited”. Besides, in assay [2], the dendritic spine density is on record as 1.32±0.08 spine/μm, the mushroom-shaped spines stood at 64.0±1.7% and the thin spines turned out to be 26.7±2.0%. The “synapses enveloped (astrocyte coverage of stratum radiatum synapses)” value in assay [3] (APP/PS1 mice) was 64.0±1.5%. Besides, the “synapses enveloped (astrocyte coating)” value in assay [3] (WT mice) stood at 62.7±2.7%. Besides, the IC50 in assay [4] was 7.6 µM.
